Assay results as given in US20240041042A1, “1-(PYRIDYL)-5-AZINYLPYRAZOLE DERIVATIVES, AND THEIR USE FOR CONTROL OF UNDESIRED PLANT GROWTH” (Bayer Aktiengesellschaft, priority 2020, published 2024).
Like-named read-outs stand apart in the source and are kept apart here.

Experiments:
Format in all cases: in vivo
[1] = system: Digitaria sanguinalis (DIGSA); assay: Pre-emergence herbicidal action against DIGSA
Procedure, shortened: (§1)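 Herbicide applied to soil before seedling emergence, at 600 l/ha spray volume with 0.5% additive and rates up to 320 g/ha. Evaluation: visual percentage effect, about 3 weeks later, greenhouse-grown pots compared with untreated ones.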

[2] = system: Polygonum convolvulus (POLCO); assay: Post-emergence herbicidal action against POLCO
Procedure, shortened: (§2)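 Doses of 320 g/ha or lower, suffixes a, b and c marking different dosages, were applied post-emergence at the one-leaf stage in 600 l/ha water with 0.5% additive. Damage was assessed visually after about 3 weeks in the greenhouse.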

[3] = system: Verconica persica (VERPE); assay: Post-emergence herbicidal action against VERPE
Procedure, shortened: as §2

Avena fatua (AVEFA) [4] = assay: Pre-emergence herbicidal action against AVEFA; conditions: 320 g/ha, visual scoring after about 3 weeks vs untreated controls
Procedure, shortened: as §1

[5] = system: Alopecurus myosuroides (ALOMY); assay: Post-emergence herbicidal action against ALOMY; conditions: visual rating about 3 weeks after treatment vs untreated controls (100% = plants have died, 0% = like control plants)
Procedure, shortened: as §2

Setaria viridis (SETVI) [6] = assay: Post-emergence herbicidal action against SETVI
Procedure, shortened: as §2

Zea mays (ZEAMX) = conditions: 20 g/ha, ZEAMX, effect in comparison to untreated controls
Procedure, shortened: (§3)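 Greenhouse crops in sandy loam sprayed post-emergence at the one-leaf stage, 2–3 weeks after sowing, with WP or EC formulations in water plus 0.5% additive at 600 l/ha. Damage rated visually about 3 weeks later versus untreated controls (0% = like control, 100% = dead); suffixes a–c denote different doses.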

Oryza sativa (ORYSA) = conditions: crop plant compatibility
Procedure, shortened: as §3

[7] = system: Echinochloa crus-galli (ECHCG); assay: Pre-emergence herbicidal action against ECHCG; conditions: dosage 320 g/ha
Procedure, shortened: as §1

[8] = system: Alopecurus myosuroides (ALOMY); assay: Pre-emergence herbicidal action against ALOMY; conditions: scored visually after about 3 weeks, 100% = plants have died
Procedure, shortened: as §1

[9] = system: Polygonum convolvulus (POLCO); assay: Pre-emergence herbicidal action against POLCO
Procedure, shortened: as §1

[10] = system: Echinochloa crus-galli (ECHCG); assay: Post-emergence herbicidal action against ECHCG
Procedure, shortened: as §2

Viola tricolor (VIOTR) [11] = assay: Post-emergence herbicidal action against VIOTR
Procedure, shortened: as §2

[12] = system: Pharbitis purpurea (PHBPU); assay: Post-emergence herbicidal action against PHBPU
Procedure, shortened: as §2

[13] = system: Abutilon theophrasti (ABUTH); assay: Post-emergence herbicidal action against ABUTH; conditions: visual rating about 3 weeks after treatment vs untreated controls (100% = plants have died, 0% = like control plants)
Procedure, shortened: as §2

[14] = system: Abutilon theophrasti (ABUTH); assay: Pre-emergence herbicidal action against ABUTH; conditions: Dosage column 320 g/ha (title prints 3200 g/ha); scored visually after about 3 weeks; 100% = plants have died
Procedure, shortened: as §1

[15] = system: Digitaria sanguinalis (DIGSA); assay: Post-emergence herbicidal action against DIGSA; conditions: visual rating about 3 weeks after treatment
Procedure, shortened: as §2

Lolium rigidum (LOLRI) [16] = assay: Pre-emergence herbicidal action against LOLRI; conditions: dosage 320 g/ha
Procedure, shortened: as §1

[17] = system: Amaranthus retroflexus (AMARE); assay: Pre-emergence herbicidal action against AMARE; conditions: visual scoring after about 3 weeks vs untreated controls
Procedure, shortened: as §1

Setaria viridis (SETVI) [18] = assay: Pre-emergence herbicidal action against SETVI
Procedure, shortened: as §1

Viola tricolor (VIOTR) [19] = assay: Pre-emergence herbicidal action against VIOTR
Procedure, shortened: as §1

[20] = system: Matricaria inodora (MATIN); assay: Pre-emergence herbicidal action against MATIN
Procedure, shortened: as §1

[21] = system: Verconica persica (VERPE); assay: Pre-emergence herbicidal action against VERPE
Procedure, shortened: as §1

Avena fatua (AVEFA) [22] = assay: Post-emergence herbicidal action against AVEFA; conditions: visual rating about 3 weeks after treatment
Procedure, shortened: as §2

Lolium rigidum (LOLRI) [23] = assay: Post-emergence herbicidal action against LOLRI
Procedure, shortened: as §2

[24] = system: Pharbitis purpurea (PHBPU); assay: Pre-emergence herbicidal action against PHBPU; conditions: dosage 320 g/ha
Procedure, shortened: as §1

[25] = 80 g/ha, visual scoring after about 3 weeks vs untreated controls

CCOC(=O)COc1nn(-c2ncccc2F)c(-c2ccc(F)nc2)c1Br [Example I-39]
80%: Post-emergence action against VERPE in % ([3]; dosage 80 g/ha) | Post-emergence action against SETVI in % (Setaria viridis (SETVI) [6]; dosage 80 g/ha) | Post-emergence action against ECHCG in % ([10]; dosage 80 g/ha) | Post-emergence action against VIOTR in % (Viola tricolor (VIOTR) [11]; 80 g/ha) | Post-emergence action against PHBPU in % ([12]; dosage 80 g/ha)
0%: Post-emergence action against ZEAMX in % (crop plant compatibility) (Zea mays (ZEAMX)) | Post-emergence action against ORYSA in % (Oryza sativa (ORYSA); 20 g/ha, effect vs untreated controls)
90%: Post-emergence action against POLCO in % ([2]; dosage 80 g/ha) | Pre-emergence action against AVEFA in % (Avena fatua (AVEFA) [4]) | Pre-emergence action against POLCO in % ([9]; dosage 320 g/ha) | Post-emergence action against ABUTH in % ([13]; 80 g/ha) | Pre-emergence action against ABUTH [14] | Post-emergence action against DIGSA in % ([15]; 80 g/ha)
100%: Pre-emergence action against DIGSA in % [1, 25] | Pre-emergence action against DIGSA in % ([1]; dosage 320 g/ha) | Post-emergence action against ALOMY in % ([5]; 80 g/ha) | Pre-emergence action against ECHCG in % [7] | Pre-emergence action against ALOMY ([8]; 80 g/ha) | Pre-emergence action against ALOMY ([8]; 320 g/ha) | Pre-emergence action against LOLRI in % (Lolium rigidum (LOLRI) [16]) | Pre-emergence action against AMARE in % ([17]; 80 g/ha) | Pre-emergence action against AMARE in % ([17]; 320 g/ha) | Pre-emergence action against SETVI in % (Setaria viridis (SETVI) [18]; dosage 80 g/ha) | Pre-emergence action against SETVI in % (Setaria viridis (SETVI) [18]; dosage 320 g/ha) | Pre-emergence action against VIOTR in % (Viola tricolor (VIOTR) [19]; 320 g/ha, Viola tricolor) | Pre-emergence action against VIOTR in % (Viola tricolor (VIOTR) [19]; dosage 80 g/ha) | Pre-emergence action against MATIN in % ([20]; dosage 320 g/ha) | Pre-emergence action against VERPE in % ([21]; dosage 320 g/ha)

C[C@@H](Oc1nn(-c2nc(F)ccc2F)c(-c2ccc(F)nc2)c1C1CC1)C(=O)O [Example I-296]
80%: Post-emergence action against POLCO in % ([2]; dosage 320 g/ha) | Post-emergence action against VERPE in % ([3]; 320 g/ha, VERPE) | Post-emergence action against ALOMY in % ([5]; 80 g/ha) | Post-emergence action against SETVI in % (Setaria viridis (SETVI) [6]; dosage 320 g/ha) | Pre-emergence action against ALOMY ([8]; 80 g/ha) | Pre-emergence action against POLCO in % ([9]; dosage 80 g/ha) | Post-emergence action against ECHCG in % ([10]; dosage 80 g/ha) | Post-emergence action against ECHCG in % ([10]; dosage 320 g/ha) | Post-emergence action against VIOTR in % (Viola tricolor (VIOTR) [11]; 80 g/ha) | Post-emergence action against VIOTR in % (Viola tricolor (VIOTR) [11]; 320 g/ha) | Post-emergence action against AVEFA in % (Avena fatua (AVEFA) [22]; 80 g/ha) | Post-emergence action against AVEFA in % (Avena fatua (AVEFA) [22]; 320 g/ha) | Post-emergence action against LOLRI in % (Lolium rigidum (LOLRI) [23]; dosage 80 g/ha) | Post-emergence action against LOLRI in % (Lolium rigidum (LOLRI) [23]; dosage 320 g/ha) | Post-emergence action against ABUTH in % ([13]; 320 g/ha) | Pre-emergence action against ABUTH [14] | Post-emergence action against DIGSA in % ([15]; 80 g/ha) | Pre-emergence action against AMARE in % ([17]; 80 g/ha) | Pre-emergence action against MATIN in % ([20]; dosage 80 g/ha)
0%: Post-emergence action against ORYSA in % (Oryza sativa (ORYSA); 80 g/ha, effect in comparison to untreated controls)
90%: Pre-emergence action against DIGSA in % [1, 25] | Pre-emergence action against AVEFA in % (Avena fatua (AVEFA) [4]) | Post-emergence action against ALOMY in % ([5]; 320 g/ha) | Pre-emergence action against POLCO in % ([9]; dosage 320 g/ha) | Post-emergence action against PHBPU in % ([12]; dosage 320 g/ha) | Post-emergence action against DIGSA in % ([15]; 320 g/ha) | Pre-emergence action against AMARE in % ([17]; 320 g/ha) | Pre-emergence action against SETVI in % (Setaria viridis (SETVI) [18]; dosage 80 g/ha) | Pre-emergence action against VIOTR in % (Viola tricolor (VIOTR) [19]; dosage 80 g/ha) | Pre-emergence action against MATIN in % ([20]; dosage 320 g/ha) | Pre-emergence action against VERPE in % ([21]; dosage 80 g/ha) | Pre-emergence action against PHBPU in % [24]
100%: Pre-emergence action against DIGSA in % ([1]; dosage 320 g/ha) | Pre-emergence action against ECHCG in % [7] | Pre-emergence action against ALOMY ([8]; 320 g/ha) | Pre-emergence action against LOLRI in % (Lolium rigidum (LOLRI) [16]) | Pre-emergence action against SETVI in % (Setaria viridis (SETVI) [18]; dosage 320 g/ha) | Pre-emergence action against VIOTR in % (Viola tricolor (VIOTR) [19]; 320 g/ha, Viola tricolor) | Pre-emergence action against VERPE in % ([21]; dosage 320 g/ha)
